# In ChEMBL document CHEMBL1139767, “Dragon method for finding novel tyrosinase inhibitors: Biosilico identification and experimental in vitro assays” (Eur J Med Chem, 2007):
# Biological target: T1, Tyrosinase (Agaricus bisporus, UniProt O42713)
# T1 sequence (O42713 whole entry): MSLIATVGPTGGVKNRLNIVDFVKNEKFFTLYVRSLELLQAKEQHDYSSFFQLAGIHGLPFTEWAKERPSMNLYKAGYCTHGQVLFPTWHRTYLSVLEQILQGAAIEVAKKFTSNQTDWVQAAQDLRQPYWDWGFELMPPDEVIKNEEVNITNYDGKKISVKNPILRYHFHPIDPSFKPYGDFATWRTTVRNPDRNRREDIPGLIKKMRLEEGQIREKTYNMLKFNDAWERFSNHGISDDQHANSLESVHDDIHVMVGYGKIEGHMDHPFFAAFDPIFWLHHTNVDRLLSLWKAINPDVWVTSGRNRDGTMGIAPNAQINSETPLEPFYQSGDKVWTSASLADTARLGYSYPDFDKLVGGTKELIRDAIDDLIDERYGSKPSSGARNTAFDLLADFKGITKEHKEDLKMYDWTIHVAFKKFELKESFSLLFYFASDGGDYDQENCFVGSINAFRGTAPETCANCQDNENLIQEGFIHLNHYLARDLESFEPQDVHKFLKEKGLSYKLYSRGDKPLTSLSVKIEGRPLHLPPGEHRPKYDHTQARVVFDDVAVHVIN
# Description: Inhibition of mashroom tyrosinase
row,Structure (SMILES),IC50 [µM]
1,"C1CCN(C2CCNCC2)CC1 [[1,4']Bipiperidinyl]",111
2,CC(=O)N1CCC(N2CCCCC2)CC1,29.9
3,c1ccc(OCCCN2CCC(N3CCCCC3)CC2)cc1,19.5
4,O=[N+]([O-])c1ccc(S(=O)(=O)N2CCC(N3CCCCC3)CC2)cc1,111
5,Cc1ccc(CN2CCC(N3CCCCC3)CC2)cc1,1.72
